# Experimental data published in patent publication US20120255051A1, “HERBICIDE TOLERANT PLANTS” (priority 2009, published 2012).
# Tested on: Brassica plants comprising mutant AHAS alleles
# Experiment: Field trial, pre-planting treatment (0, 10, 20, 30 g a.i./ha), two locations in Canada: ERG, EST1, EST2, PPTOX, VIG1, VIG2, VIG3 scores
# Format: in vivo, Brassica napus
# Source text: Tests were set up and conducted to asses the growth and performance of plants comprising AHAS full knock-out alleles, and to further analyze the correlation between the presence of full knockout and missense AHAS genes in Brassica plants and plant growth and herbicide tolerance of the Brassica plants in the field. To this end, the Brassica plants identified in Example 1 and 2 were backcrossed two times with an elite parent line, and subsequently selfed twice to obtain homozygous plants (BC2S2). Plants were grown as row plots in a split plot design with three replicates (main plots=herbicide treatments, subplots=genotypes) at two locations in Canada. Treatment pre-planting was carried out on the soil about two days before sowing with a dose of 0 (treatment A), 10 (treatment B), 20 (treatment C) or 30 (treatment D) g a.i./ha of thiencarbazone methyl. Herbicide tolerance was measured by scoring for different parameters. The parameter emergence (ERG) was scored at the cotyledon stage on a scale 1-9, where 1 means late emergence and 9 means early emergence. Establishment was scored 14 days after sowing (EST1) and 21 days after sowing (EST2). Scores were from 1 to 9, where 1 is the worst establishment (least plants that emerged), and 9 is the best establishment (most plants emerged). Phytotoxicity (PPTOX) was determined after establishment. Plants were evaluated on a scale of 1 to 9, where 1=completely yellowing, 5=50% of plant is yellow and 9=no yellowing. The vigor scores (see above) were determined at 1-2 leaf stage (VIG1), 7 days after VIG1 (VIG2) and 14 days after VIG1 (VIG3). The average values (Av) and standard deviations (SD) of the scores for the different parameters are represented in Table 7a-g.
# Further, the contribution of the knock-out allele to herbicide tolerance conferred by the missense allele was calculated. First, the scores were corrected for a possible effect of the growth per se, independent of herbicide treatment. To this end, the scores for treatments B, C and D were divided by the scores for treatment A for the same genotype and for the same parameter (corrected herbicide tolerance scores). Next, the effect of the knock-out allele to these corrected herbicide tolerance scores obtained by the missense allele was calculated. Therefore, the corrected herbicide tolerance scores for the missense—knock-out allele combination was divided by the corrected herbicide tolerance scores for the missense allele—wild-type combination. In case the knock-out allele has no effect on herbicide tolerance conferred by the missense allele, this ratio should be 1. In case the knock-out allele positively contributes to the herbicide tolerance conferred by the missense allele, this ratio should be higher than 1. The results for the contribution of the knock-out allele to herbicide tolerance conferred by the missense allele as calculated above are shown in table 8.
# [1] = AHAS1 HETO112, AHAS3 WT, treatment C 20 g a.i./ha pre-planting, Location A
# [2] = AHAS1 HETO112, AHAS3 WT, treatment C 20 g a.i./ha pre-planting, Location B
# [3] = AHAS1 HETO112, AHAS3 WT, treatment D 30 g a.i./ha pre-planting, Location A
# [4] = AHAS1 HETO112, AHAS3 WT, treatment D 30 g a.i./ha pre-planting, Location B
# [5] = AHAS1 HETO112/AHAS3 HETO111, 10 g a.i./ha pre-planting (B), Location A
# [6] = AHAS1 HETO112/AHAS3 HETO111, 10 g a.i./ha pre-planting (B), Location B
# [7] = AHAS1 HETO112/AHAS3 HETO111, 20 g a.i./ha pre-planting (C), Location A
# [8] = AHAS1 HETO112/AHAS3 HETO111, 20 g a.i./ha pre-planting (C), Location B
# [9] = AHAS1 HETO112/AHAS3 HETO111, 30 g a.i./ha pre-planting (D), Location A
# [10] = AHAS1 HETO112/AHAS3 HETO111, 30 g a.i./ha pre-planting (D), Location B
# [11] = AHAS1 HETO112/AHAS3 WT, 10 g a.i./ha pre-planting (B), Location A
# [12] = AHAS1 HETO112/AHAS3 WT, 10 g a.i./ha pre-planting (B), Location B
# [13] = AHAS1 HETO112/AHAS3 WT, 20 g a.i./ha pre-planting (C), Location A
# [14] = AHAS1 HETO112/AHAS3 WT, 20 g a.i./ha pre-planting (C), Location B
# [15] = AHAS1 HETO112/AHAS3 WT, 30 g a.i./ha pre-planting (D), Location A
# [16] = AHAS1 HETO112/AHAS3 WT, 30 g a.i./ha pre-planting (D), Location B
# [17] = AHAS1 WT, AHAS3 HETO104, treatment B 10 g a.i./ha pre-planting, Location A
# [18] = AHAS1 WT, AHAS3 HETO104, treatment B 10 g a.i./ha pre-planting, Location B
# [19] = AHAS1 WT, AHAS3 HETO104, treatment C 20 g a.i./ha pre-planting, Location A
# [20] = AHAS1 WT, AHAS3 HETO104, treatment C 20 g a.i./ha pre-planting, Location B
# [21] = AHAS1 WT, AHAS3 HETO104, treatment D 30 g a.i./ha pre-planting, Location A
# [22] = AHAS1 WT, AHAS3 HETO104, treatment D 30 g a.i./ha pre-planting, Location B
structure (smiles),measurement,setting,value
"COC(=O)c1csc(C)c1S(=O)(=O)NC(=O)n1nc(OC)n(C)c1=O [thiencarbazone-methyl, methyl 4-[(4,5-dihydro-3-methoxy-4-methyl-5-oxo-1H-1,2,4-triazol-1-yl)carbonylsulfamoyl]-5-methylthiophene-3-carboxylate]","establishment (EST1) score Av, 14 days after sowing","AHAS1 HETO112, AHAS3 WT, treatment B 10 g a.i./ha pre-planting, Location B",2.33
same,emergence (ERG) score Av,[1],1.00
same,"establishment (EST1) score Av, 14 days after sowing",[1],1.00
same,emergence (ERG) score Av,[2],1.00
same,"establishment (EST1) score Av, 14 days after sowing",[2],1.33
same,emergence (ERG) score Av,[3],1.00
same,"establishment (EST1) score Av, 14 days after sowing",[3],1.00
same,emergence (ERG) score Av,[4],1.00
same,"establishment (EST1) score Av, 14 days after sowing",[4],1.00
same,"establishment (EST2) score, Av",[5],5.67
same,"vigor1 (VIG1) score, Av",[5],6.33
same,"vigor2 (VIG2) score, Av",[5],7.33
same,"establishment (EST2) score, Av",[6],5.67
same,"vigor2 (VIG2) score, Av",[6],6.67
same,"establishment (EST2) score, Av",[7],5.33
same,"vigor2 (VIG2) score, Av",[7],6.33
same,"establishment (EST2) score, Av",[8],5.00
same,"vigor2 (VIG2) score, Av",[8],5.33
same,"establishment (EST2) score, Av",[9],5.67
same,"vigor2 (VIG2) score, Av",[9],6.67
same,"establishment (EST2) score, Av",[10],3.67
same,"vigor1 (VIG1) score, Av",[10],4.00
same,"vigor2 (VIG2) score, Av",[10],5.33
same,"establishment (EST2) score, Av",[11],1.67
same,"phytotoxicity (PPTOX) score, Av",[11],1.00
same,"vigor1 (VIG1) score, Av",[11],1.00
same,"vigor2 (VIG2) score, Av",[11],1.00
same,"establishment (EST2) score, Av",[12],2.67
same,"phytotoxicity (PPTOX) score, Av",[12],1.00
same,"vigor1 (VIG1) score, Av",[12],1.33
same,"vigor2 (VIG2) score, Av",[12],1.00
same,"establishment (EST2) score, Av",[13],1.00
same,"phytotoxicity (PPTOX) score, Av",[13],1.00
same,"vigor1 (VIG1) score, Av",[13],1.00
same,"vigor2 (VIG2) score, Av",[13],1.00
same,"establishment (EST2) score, Av",[14],1.67
same,"phytotoxicity (PPTOX) score, Av",[14],1.00
same,"vigor1 (VIG1) score, Av",[14],1.00
same,"vigor2 (VIG2) score, Av",[14],1.00
same,"establishment (EST2) score, Av",[15],1.00
same,"phytotoxicity (PPTOX) score, Av",[15],1.00
same,"vigor1 (VIG1) score, Av",[15],1.00
same,"vigor2 (VIG2) score, Av",[15],1.00
same,"establishment (EST2) score, Av",[16],1.00
same,"phytotoxicity (PPTOX) score, Av",[16],1.00
same,"vigor1 (VIG1) score, Av",[16],1.00
same,"vigor2 (VIG2) score, Av",[16],1.00
same,emergence (ERG) score Av,[17],2.00
same,"establishment (EST1) score Av, 14 days after sowing",[17],2.33
same,emergence (ERG) score Av,[18],2.00
same,"establishment (EST1) score Av, 14 days after sowing",[18],3.33
same,emergence (ERG) score Av,[19],1.00
same,"establishment (EST1) score Av, 14 days after sowing",[19],1.00
same,emergence (ERG) score Av,[20],1.33
same,"establishment (EST1) score Av, 14 days after sowing",[20],2.33
same,emergence (ERG) score Av,[21],1.00
same,"establishment (EST1) score Av, 14 days after sowing",[21],1.00
same,emergence (ERG) score Av,[22],1.00
same,"establishment (EST1) score Av, 14 days after sowing",[22],1.00
same,emergence (ERG) score Av,"AHAS1 WT, AHAS3 HETO111 (HETO108+HETO111 series), treatment B 10 g a.i./ha pre-planting, Location A",5.33
